Measured values: article PMC7815786, “Antimicrobial effects of syndiotactic polypeptides” (Scientific Reports, 2021)
In brackets after ≈: the same amount, converted by molar mass. Where a SMILES comes first, the peptide text is derived from it. [ ]: non-standard residue; d: D form.

Assays:
Escherichia coli MG1655 = format: cell-based
Description: (§1) The antibacterial activity was performed using micro-dilution method as per Clinical and Laboratory Standards Institute (CLSI). Gentamicin resistant MRSA (ATCC 33592), Mycobacterium smegmatis (ATCC607) were procured from ATCC, Escherichia coli MG1655 has been sourced fromChaudhary laboratory, BSBE, IIT Guwahati. The clinical isolates was provided by Dr. Chimanjita Phukan (Guwahati Medical College Hospital, Bhangagarh, Guwahati, Assam). The media broth was procured from Himedia Laboratories. Overnight culture of Gentamicin resistant MRSA (ATCC 33592), Escherichia coli MG1655, clinical isolates [(S. aureus (drug resistant) and E. coli (multidrug resistant) supplementary table 2] were diluted to 10^6 CFU/mL in Nutrient Broth (NB). 100 µL of broth containing 50 µL of bacterial suspension and test peptides at various concentrations were incubated for 12 to 16 h at 37 °C[33]. Similarly, Mycobacterium smegmatis (ATCC607) was diluted to 10^6 CFU/mL in M7H9 media. 50 µL of bacterial suspension was treated with 50 µL peptides at various concentrations. The peptide bacterial suspension was incubated for 72 h at 37 °C. The antimicrobial potencies of the peptides were evaluated at 600 nm by a comparative assessment with untreated bacterial suspension (negative control). The Minimal Inhibitory Concentration (MIC) was reported at the lowest concentration, where no growth was observed, as per standard protocols. The serum sensitivity experiment was similar to antibacterial activity. In this experiment, 50% serum containing media was used, instead of media alone. The experiment with human serum was performed as per IHEC (Institute Human Ethics Committee) guidelines, at IIT Guwahati hospital, from healthy adult donors. All the protocols were approved by the IHEC, and performed, with the informed consent and written approval from the subjects.

[1] = test system: Mycobacterium smegmatis (ATCC607); format: cell-based; conditions: ATCC607, 72 h
Description: as §1

[2] = test system: Gentamicin resistant MRSA (ATCC 33592); format: cell-based, Staphylococcus aureus
Description: as §1

[3] = test system: bacterial species tested (not specified); format: cell-based; conditions: wet lab experiments, bacterial species not given
Description: as §1
Several modes of action of AMP’s have been proposed, and the contentious issue primarily is whether the peptide is targeting the membrane, followed by its disruption or it penetrates the membrane invading cytoplasm, affecting cellular metabolism. […]

[4] = test system: clinical isolate of drug resistant Staphylococcus aureus (sample 28401); format: cell-based; conditions: clinical isolate of drug resistant (sample 28401)
Description: as §1
(§2) Primary screening of the antibacterial activity of the peptides was performed against clinical isolates obtained from a tertiary referral hospital (Details in supplementary information, section 3). Resistant Staphylococcus aureus (Gram-positive) and E.coli (Gram negative) are the two clinical bacterial strains assayed in this study. The results of the antimicrobial assay are summarized in Fig. 4 and supplementary Table 2.
(§3) Supplementary Table 2. The in-vitro antimicrobial activity of designed peptides against clinical isolates of multi-drug resistant Staphylococcus aureus and Escherichia coli. The concentration is expressed in µM.

[5] = test system: clinical isolate of multi-drug resistant Escherichia coli (sample 28162); format: cell-based; conditions: clinical isolate of multi-drug resistant (sample 28162)
Description: as §1, §2, §3

| Compound | MIC E. coli, Medium (Escherichia coli MG1655) [µM] | MIC M.smegmatis, Medium [1] [µM] | MIC Gentamicin resistant MRSA, Medium [2] [µM] | MIC values (summary in discussion) [3] [µM] | MIC S. aureus clinical isolate [4] [µM] | MIC E.coli clinical isolate [5] [µM] |
| --- | --- | --- | --- | --- | --- | --- |
| CC(C)[C@H](NC(=O)[C@@H](Cc1c[nH]c2ccccc12)NC(=O)[C@H](Cc1c[nH]c2ccccc12)NC(=O)[C@@H](CCCCN)NC(=O)[C@H](CCCNC(=N)N)NC(=O)[C@@H](CCCCN)NC(=O)[C@@H](NC(=O)[C@H](NC(=O)[C@H](Cc1c[nH]c2ccccc12)NC(=O)[C@@H](Cc1c[nH]c2ccccc12)NC(=O)[C@H](CCCNC(=N)N)NC(=O)[C@@H](CCCCN)NC(=O)[C@@H](N)CCCNC(=N)N)C(C)C)C(C)C)C(N)=O [AS01] (H-R[dK]R[dW]W[dV]V[dK]R[dK]W[dW]V-NH2) | 3.13 (≈ 5.99 µg/mL) | 6.25 (≈ 12 µg/mL) | 6.25 (≈ 12 µg/mL) | – | – | – |
| CC(C)[C@H](NC(=O)[C@H](NC(=O)[C@H](CCCCN)NC(=O)[C@@H](CCCCN)NC(=O)[C@H](CCCCN)NC(=O)[C@H](NC(=O)[C@@H](NC(=O)[C@H](NC(=O)[C@H](CCCCN)NC(=O)[C@@H](CCCCN)NC(=O)[C@@H](N)CCCCN)C(C)C)C(C)C)C(C)C)C(C)C)C(=O)N[C@H](Cc1c[nH]c2ccccc12)C(=O)N[C@@H](CCCCN)C(N)=O [AS06] (H-K[dK]K[dV]V[dV]K[dK]K[dV]V[dW]K-NH2) | 25 (≈ 39.9 µg/mL) | 25 (≈ 39.9 µg/mL) | 50 (≈ 79.8 µg/mL) | ~50 (≈ 79.8 µg/mL) | – | – |
| CC(C)[C@@H](NC(=O)[C@H](Cc1c[nH]c2ccccc12)NC(=O)[C@H](NC(=O)[C@H](CCCCN)NC(=O)[C@@H](CCCCN)NC(=O)[C@H](CCCCN)NC(=O)[C@@H](Cc1c[nH]c2ccccc12)NC(=O)[C@@H](N)Cc1c[nH]c2ccccc12)C(C)C)C(=O)N[C@@H](CCCCN)C(=O)N[C@H](CCCCN)C(=O)N[C@@H](CCCCN)C(=O)N[C@H](Cc1c[nH]c2ccccc12)C(=O)N[C@@H](Cc1c[nH]c2ccccc12)C(N)=O [AS04] (H-W[dW]K[dK]K[dV]W[dV]K[dK]K[dW]W-NH2) | 3.13 (≈ 6 µg/mL) | 6.25 (≈ 12 µg/mL) | 1.6 (≈ 3.06 µg/mL) | – | 50 (≈ 95.8 µg/mL) | 25 (≈ 47.9 µg/mL) |
| CC(C)C[C@@H](NC(=O)[C@H](Cc1c[nH]c2ccccc12)NC(=O)[C@@H](CC(C)C)NC(=O)[C@@H](N)Cc1c[nH]c2ccccc12)C(=O)N[C@@H](Cc1c[nH]c2ccccc12)C(=O)N[C@H](CC(C)C)C(=O)N[C@@H](Cc1c[nH]c2ccccc12)C(=O)N[C@@H](C(=O)N[C@@H](CCCCN)C(=O)N[C@H](CCCCN)C(=O)N[C@@H](C)C(=O)N[C@H](CCCCN)C(=O)N[C@@H](C)C(=O)N[C@H](CCCCN)C(=O)N[C@@H](CCCCN)C(N)=O)C(C)C [AS08] (H-W[dL]W[dL]W[dL]W[dV]K[dK]A[dK]A[dK]K-NH2) | 6.25 (≈ 12.4 µg/mL) | 6.25 (≈ 12.4 µg/mL) | 6.25 (≈ 12.4 µg/mL) | 1 to 10 | – | – |
| CC(C)[C@H](NC(=O)[C@H](NC(=O)[C@H](Cc1c[nH]c2ccccc12)NC(=O)[C@@H](Cc1c[nH]c2ccccc12)NC(=O)[C@H](CCCCN)NC(=O)[C@@H](CCCCN)NC(=O)[C@H](CCCCN)NC(=O)[C@H](NC(=O)[C@H](Cc1c[nH]c2ccccc12)NC(=O)[C@@H](Cc1c[nH]c2ccccc12)NC(=O)[C@H](CCCCN)NC(=O)[C@@H](CCCCN)NC(=O)[C@@H](N)CCCCN)C(C)C)C(C)C)C(N)=O [AS03] (H-K[dK]K[dW]W[dV]K[dK]K[dW]W[dV]V-NH2) | 6.25 (≈ 11.4 µg/mL) | 6.25 (≈ 11.4 µg/mL) | 3.13 (≈ 5.72 µg/mL) | 1 to 10 | 25 (≈ 45.7 µg/mL) | 25 (≈ 45.7 µg/mL) |
| CC(C)C[C@H](NC(=O)[C@@H](Cc1c[nH]c2ccccc12)NC(=O)[C@H](CC(C)C)NC(=O)[C@@H](Cc1c[nH]c2ccccc12)NC(=O)[C@H](CCCNC(=N)N)NC(=O)[C@@H](CCCCN)NC(=O)[C@@H](N)CCCNC(=N)N)C(=O)N[C@H](CCCCN)C(=O)N[C@@H](CCCNC(=N)N)C(=O)N[C@H](CCCCN)C(=O)N[C@@H](Cc1c[nH]c2ccccc12)C(=O)N[C@H](CC(C)C)C(=O)N[C@@H](Cc1c[nH]c2ccccc12)C(N)=O [AS02] (H-R[dK]R[dW]L[dW]L[dK]R[dK]W[dL]W-NH2) | 6.25 (≈ 12.2 µg/mL) | 3.13 (≈ 6.12 µg/mL) | 3.13 (≈ 6.12 µg/mL) | – | 50 (≈ 97.7 µg/mL) | 50 (≈ 97.7 µg/mL) |
